Values after ≈ are worked out from the molar mass of the structure shown. Active and inactive are the calls of the source. No cut-off for these calls is given here.
Assays:
[1] = Kinetic solubility of compound in FeSSIF at pH 5 incubated for 2 hr by LC-MS analysis; type: physicochemical; details: read-out: Kinetic_solubility
[2] = Tmax in cynomolgus monkey at 20 mg/kg, po measured up to 24 hrs by LC-MS/MS analysis; type: ADME, organism-based, Macaca fascicularis; details: in vivo
CYP2B6 = target: T1, CYP2B6 (Homo sapiens, UniProt P20813); test: Inhibition of CYP2B6 in human liver microsome using bupropion as substrate at 10 uM preincubated for 5 mins followed by NADPH addition and measured after 10 mins by LC-MS/MS analysis relative to control; type: ADME; details: human liver microsomes, probe bupropion, time 15 min
T1 sequence (P20813 whole entry): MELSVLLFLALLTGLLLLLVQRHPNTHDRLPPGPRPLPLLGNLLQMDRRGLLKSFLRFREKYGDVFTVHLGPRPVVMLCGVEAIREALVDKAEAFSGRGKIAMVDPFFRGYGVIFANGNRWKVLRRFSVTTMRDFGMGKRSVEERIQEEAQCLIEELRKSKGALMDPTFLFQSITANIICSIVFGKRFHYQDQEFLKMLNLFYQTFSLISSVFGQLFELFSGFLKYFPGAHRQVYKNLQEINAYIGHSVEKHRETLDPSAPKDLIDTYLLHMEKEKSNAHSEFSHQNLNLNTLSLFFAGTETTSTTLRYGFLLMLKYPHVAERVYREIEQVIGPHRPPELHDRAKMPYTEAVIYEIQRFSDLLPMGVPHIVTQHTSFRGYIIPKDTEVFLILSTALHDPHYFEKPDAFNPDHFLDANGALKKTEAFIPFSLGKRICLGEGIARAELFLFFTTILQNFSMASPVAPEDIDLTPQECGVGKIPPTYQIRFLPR

Mus musculus [3] = test: Anti-psoriasis effect in IMQ-induced C57BL/6 mouse assessed as reduction in ear thickness at 100 mg/kg administered topically twice daily for 6 days and measured after 24 hrs; type: functional, organism-based; details: time 7.0 day
Mus musculus [4] = test: Anti-arthritic activity against collagen-induced arthritis DBA/1 mouse model assessed as reduction in pathological score at 100 mg/kg, po administered for 14 days; type: functional, organism-based; details: time 14.0 day

Compound: Cn1c(=O)n(C2CCC(=O)NC2=O)c2cccc(C#CCO[C@H]3CC[C@H](CN4CCC5(CC4)Cc4cc(NC(=O)c6coc7cccnc67)c(N6CCC(CO)CC6)cc4O5)CC3)c21 (stereo not given in full)
- solubility kinetic at 2 h [1]: 7.78 µg/mL (≈ 8.94 µM)
- Tmax [2]: 6 h
- inhibition at 10 min, 10 µM (CYP2B6): 0.13%
- Activity (Mus musculus [3]): Active
- Activity (Mus musculus [4]): Active

— ChEMBL document CHEMBL6182949 (J Med Chem, 2025)
